Ends that are not written are not given here.
B1: UBE2G2: ERAD ubiquitin-conjugating enzyme (E2); purified in vitro, N-terminally MYC-tagged in cells (protein)
chain: MAGTALKRLMAEYKQLTLNPPEGIVAGPMNEENFFEWEALIMGPEDTCFEFGVFPAILSFPLDYPLSPPKMRFTCEMFHPNIYPDGRVCISILHAPGDDPMGYESSAERWSPVQSVEKILLSVVSMLAEPNDESGANVDASKMWRDDREQFYKIAKQIVQKSLGL

System: NHK (Null Hong Kong variant of alpha1-antitrypsin)
Assay: CHX chase: NHK degradation in HT1080 AUP1 KO cells
Format: cell-based, human
Procedure: Fig 1 The G2BR of AUP1 is required for ERAD of NHK. (A) HT1080 or cells in which HRD1 was knocked out by CRISPR/Cas-9 (HRD1 KO) were transfected with plasmid encoding carboxyl-terminally HA-tagged NHK. Cells were treated with CHX for the indicated times to inhibit protein synthesis and NHK-HA degradation monitored by western blot. GFP and HSP60 serve as transfection efficiency and gel loading controls, respectively. (B) HT1080 or cells in which either AUP1 or gp78 was knocked out (AUP1 KO or gp78 KO) were transfected with NHK-HA and their degradation assessed. (C) AUP1 KO cells were transfected with NHK-HA and empty vector or plasmid encoding carboxyl-terminally FLAG-tagged AUP1 and NHK degradation assessed. (D) Indicated cells were transfected with plasmid encoding carboxyl-terminally MYC-tagged INSIG-1 and assessed for INSIG-1 degradation. (E) Schematic representation of AUP1 in the ER membrane and deletion mutants used in subsequent experiments. Amino acid residues are numbered spanning each domain. (F) AUP1 KO cells were transfected with NHK-HA and plasmids encoding the indicated FLAG-tagged AUP1 WT or deletion mutants and assessed for NHK degradation. (G) HEK293 (Parental) or HEK293 AUP1 KO cells were assessed for degradation of NHK-HA. (H) HEK293 AUP1 KO cells were assessed for NHK-HA degradation as in (F). Markers represent apparent molecular weight in kDa. The data underlying this figure can be found in S1 Data. aa, amino acid; AUP1, ancient ubiquitous protein 1; CHX, cycloheximide; ER, endoplasmic reticulum; ERAD, endoplasmic reticulum–associated degradation; G2BR, UBE2G2 Binding Region; KO, knockout; NHK, Null Hong Kong; WT, wild type.
Fig 6 Disruption of UBE2G2:G2BR^AUP1 interaction abrogates AUP1 function in cells. (A) GST or indicated GST-AUP1 fusions (aa 292 to 410, expression shown in Coomassie-stained gel) were immobilized on glutathione beads and binding to ^35S-UBE2G2 was assessed as in Fig 3A. Mutations include 2A (R382A/Q383A), 2E (R382E/Q383E), and 5E (R382E/Q383E/K390E/R398E/R400E). (B) AUP1 KO cells were transfected with NHK-HA and forms of full-length AUP1-FLAG with the indicated point mutations from (A) and NHK degradation assessed by CHX chase. (C) Binding assay performed as in (A) with AUP1 mutants predicted to disrupt hydrophobic interactions with UBE2G2. (D) Cellular assay performed as in (B) with AUP1-FLAG mutants that disrupt interactions with UBE2G2 in vitro in (C). The data underlying this figure can be found in S1 Data. aa, amino acid; AUP1, ancient ubiquitous protein 1; CHX, cycloheximide; G2BR, UBE2G2 Binding Region; KO, knockout; WT, wild type.
Fig 8 Recruitment of UBE2G2 to the ER membrane and activation by G2BR^AUP1 is required for ERAD. (A) HT1080 or AUP1 KO cells were transfected with NHK-HA and either empty vector or MYC-UBE2G2 and NHK turnover assessed by CHX chase. (B) AUP1 KO cells were transfected with NHK-HA and GFP fusions of either a scrambled G2BR sequence (SCR) or G2BR^AUP1 and NHK turnover and levels of endogenous UBE2G2 assessed. Luciferase and β-actin served as transfection efficiency and gel loading controls, respectively. (C) AUP1 KO cells were transfected with NHK-HA, MYC-UBE2G2, and either GFP-SCR or GFP-G2BR^AUP1 and NHK turnover assessed. (D) Membrane fractionation was performed on HT1080 or AUP1 KO cells transfected with either empty vector or AUP1-FLAG and localization of UBE2G2 assessed by western blotting. Localization of β-actin (cytosol) and Calnexin (ER membrane) were used as controls for cytosolic (C) and membrane (M) fractions, respectively. (E) Membrane fractionation of AUP1 KO cells transfected with either MYC-UBE2G2 or TM-UBE2G2. (F) HT1080 cells were transfected with TM-UBE2G2 and its localization assessed by confocal microscopy. Images shown are from an optical section after deconvolution. HA-tagged UBE2J2, an ER-localized E2, serves as an ER marker. […]

Molecule	NHK degradation, soluble G2BR alone (GFP fusion overexpressed without UBE2G2, HT1080 AUP1 KO)	NHK degradation, soluble G2BR with UBE2G2 (GFP-G2BR^AUP1 co-expressed with MYC-UBE2G2, HT1080 AUP1 KO)	NHK degradation, soluble G2BR with TM-UBE2G2 (GFP-G2BR^AUP1 co-expressed with TM-UBE2G2, HT1080 AUP1 KO)	NHK degradation, UBE2G2 overexpression (UBE2G2 form transfected without G2BR, HT1080 AUP1 KO)
GFP-G2BR^AUP1: GFP fusion of AUP1 aa 378 to 404 (SSWARQESLQERKQALYEYARRRFTER; also: GFP fusion; UniProt Q9Y679 378-404, looked up, fragment)	insufficient to reconstitute NHK degradation	did not restore NHK degradation	fully restored	
B1				did not restore NHK degradation

From paper PMC8699718, “A structurally conserved site in AUP1 binds the E2 enzyme UBE2G2 and is essential for ER-associated degradation” (PLoS Biology, 2021)
